“Also recorded” adds a separate entry of the source. Residues, ends and D or L forms follow the SMILES beside them. *: point of attachment. Cbz = O=C(OCc1ccccc1)*
Tests used:
[1] = system: unfolded protein response (UPR) in myeloma cells; settings: cited from earlier work
oncogenic SmoM2 protein = experiment: Initial testing of compounds: SmoM2 protein stability in cultured mouse NIH3T3 cells; type: cell-based
Description: The four ER stress/UPR modulating compounds listed below (abbreviated and commercial names in parentheses) destabilize oncogenic SmoM2 protein in cultured mouse NIH3T3 cells. • 1. 17-N-Allylamino-17-demethoxygeldanamycin (17-AAG, KOS-953,Tanespimycin), • 2. 17-Dimethylaminoethylamino-17-demethoxygeldanamycin (17-DMAG, KOS-1022, Alvespimycin), • 3. 4-(6,6-dimethyl-4-oxo-3-(trifluoromethyl)-4,5,6,7-tetrahydroindazol-1-yl)-2-((1r,4r)-4-hydroxycyclohexylamino)benzamide (SNX-2112) • 4. Eeyarestatin I (EerI).

[2] = cited from earlier work
[3] = system: wild type, C318A and M2 mSmo proteins; experiment: Temperature sensitivity analysis at 40° C. with the proteasome inhibitor MG132, western blot, NIH3T3 cells; type: cell-based, mouse
Procedure: Given that the bulk of mSmoC318A and mSmoM2 are ER-localized, it was reasoned that, like the active Drosophila mutants, they would be affected by induction of a thermal ER stress response. Thermal ER stress has been observed in mammalian cells cultured at 40° C. (Xu et al., 2011 [53]). Accordingly, it was observed induction of the ER stress response transcription factor CHOP in NIH3T3 cells incubated at this high temperature for 2-4 hours (FIG. 5C). To assess the effect of thermal ER stress on mSmo proteins, wild type, C318A or mSmoM2 was expressed in NIH3T3 cells cultured at 37° C., then shifted to 40° C. for 4 hours prior to whole-cell lysis (FIG. 5C′). […] (FIG. 5C′ lanes 3-6 compared to 1-2). This destabilization is the likely result of ER-associated protein degradation (ERAD), as the ER-resident forms of all three Smo variants were stabilized at 40° C. by the proteasome inhibitor MG132 (FIG. 5C′ white arrowhead, lanes 8, 10 and 12 compared to 7, 9 and 11). The post-ER form of wild type Smo was not altered by MG132 treatment (FIG. 5C′ black arrowhead, lanes 7-8).
For protein stability analysis in mammalian cells, ˜1×10^6NIH3T3 cells were transfected with 2 ug of wild type or mutant pcDNA3.1-amino expression vector (Carroll et al., 2012 [31]). For temperature sensitivity analysis, transfected cells were maintained at 37° C. for ˜44 hours, and then shifted to 40° C. for 4 hours prior to lysis. Whole-cell lysates were prepared in modified RIPA buffer (50 mM Tris-HCl, pH 7.4, 150 mM NaCl, 0.25% deoxycholic acid, 1% NP-40, 1 mM EDTA, 0.1% SDS, 0.5 mM DTT, and 1× PIC (Roche)) by rocking for 30 minutes at 4° C. as described (Nachtergaele et al., 2012 [62]). Cell extracts were cleared by centrifuging at 16,000×g at 4° C. for 45 minutes. Supernatants were collected and analyzed by SDS-Page and western blot using anti-GADD153/CHOP (B-3, SCBT) anti-Smo (E5, SCBT) and anti-tubulin (Cell Signaling) antibodies. […] Whole-cell lysates were prepared in modified RIPA buffer and analyzed as above.

Compound: C=CCNC1=C2C[C@@H](C)C[C@H](OC)[C@H](O)[C@@H](C)/C=C(\C)[C@H](OC(N)=O)[C@@H](OC)/C=C\C=C(/C)C(=O)NC(=CC1=O)C2=O [17-AAG, 17-N-Allylamino-17-demethoxygeldanamycin]
- activation of the branches of the UPR [1]: capable of activating all three branches of the UPR
- effect on oncogenic SmoM2 protein (oncogenic SmoM2 protein): destabilize

Compound: CO[C@H]1/C=C\C=C(/C)C(=O)NC2=CC(=O)C(NCCN(C)C)=C(C[C@@H](C)C[C@H](OC)[C@H](O)[C@@H](C)/C=C(\C)[C@@H]1OC(N)=O)C2=O [17-DMAG, 17-Dimethylaminoethylamino-17-demethoxygeldanamycin]
- effect on oncogenic SmoM2 protein (oncogenic SmoM2 protein): destabilize

Compound: CC1(C)C(N(O)C(=O)Nc2ccc(Cl)cc2)N(c2ccc(Cl)cc2)C(=O)N1CC(=O)NN=CC=Cc1ccc([N+](=O)[O-])o1 (stereo not shown) [Eeyarestatin I, 3-(4-Chlorophenyl)-4-[[[(4-chlorophenyl)amino]carbonyl]hydroxyamino]-5,5-dimethyl-2-oxo-1-imidazolidineacetic acid 2-[3-(5-nitro-2-furanyl)-2-propen-1-ylidene]hydrazide]
- effect on oncogenic SmoM2 protein (oncogenic SmoM2 protein): destabilize

Compound: C/C=C(/C)C(=O)O[C@H]1C(C)=C2[C@H]([C@@H]1OC(=O)CCCCCCC)[C@@](C)(OC(C)=O)C[C@H](OC(=O)CCCCCCCCCCCNC(=O)C[C@H](N)C(=O)N[C@@H](CCC(=O)N[C@@H](CCC(=O)N[C@@H](CCC(=O)N[C@@H](CCC(=O)O)C(=O)O)C(=O)O)C(=O)O)C(=O)O)[C@@]1(O)[C@H]2OC(=O)[C@@]1(C)O [G-202]
- in vivo toxicity relative to thapsigargin [2]: significantly reduced

Compound: CC(C)C[C@@H](C=O)NC(=O)[C@H](CC(C)C)NC(=O)[C@H](CC(C)C)NC(=O)OCc1ccccc1 [MG132] (Cbz-Leu-Leu-Leu-aldehyde)
- ER-resident forms of all three Smo variants (wild type, C318A, M2): protein stability ([3]; NIH3T3 cells shifted to 40° C. for 4 hours, MG132 treatment): stabilized
- post-ER form of wild type Smo ([3]; NIH3T3 cells shifted to 40° C., MG132 treatment): unaffected; also recorded: not altered
- destabilization of the ER-resident forms of wild type and both mutants at 40° C. ([3]; NIH3T3 cells shifted to 40° C., MG132 treatment (FIG. 5C' legend)): attenuated

Compound: CC1(C)CC(=O)c2c(C(F)(F)F)nn(-c3ccc(C(N)=O)c(N[C@H]4CC[C@H](O)CC4)c3)c2C1 [SNX-2112, 4-(6,6-dimethyl-4-oxo-3-(trifluoromethyl)-4,5,6,7-tetrahydroindazol-1-yl)-2-((1r,4r)-4-hydroxycyclohexylamino)benzamide]
- effect on oncogenic SmoM2 protein (oncogenic SmoM2 protein): destabilize

Compound: C[C@@H]1C[C@H]2O[C@@H]2/C=C\C=C\C(=O)Cc2c(Cl)c(O)cc(O)c2C(=O)O1 [radicicol]
- activation of the branches of the UPR [1]: capable of activating all three branches of the UPR
